The values that follow come from a melting point compilation (Tetko et al.; mined from patent text by program, amines drawn as free bases though some values may be those of a salt).

Molecules are shown by their SMILES.

The molecule `CN(C(=O)OC(C)(C)C)c1sc(-c2cncc(F)c2)nc1I` came in with a melting point of 70 to 71 °C. Next, `Cc1cc2c(OCc3ccc(C#N)cc3)cccc2o1`: 84 to 85 °C; `CC1N=C(c2ccccc2)c2cc(Cl)ccc2NC1=O` (configuration not stated): 224 °C; `O=C(c1ccc(Oc2ccc(Oc3ccc(C(=O)C(Cl)(Cl)Cl)cc3)cc2)cc1)C(Cl)(Cl)Cl`: 215 to 217 °C. Molecule `Oc1ccc(-c2nnc(-c3ccc(Oc4ccccc4)cc3)o2)cc1` yielded a melting point of 204 to 206 °C.

The molecule `O=C(CN1CCC(Cc2ccccc2)CC1)Nc1ccc2[nH]ncc2c1` registered a melting point of 170 to 174 °C. Regarding `Cn1c(=O)n2nc(-c3ccc(Cl)cc3)nc2c2ccccc21`, the melting point was in the range of 323 to 325 °C. Next, `CC(C)(C)CC(C)(C)c1cc(N=Nc2cc(C#N)ccc2Cl)c(O)c(C(C)(C)c2ccccc2)c1`: 190 to 191 °C; `Cc1cc(C(=O)O)ccc1Sc1cc2c(cc1C)C(C)(C)CCC2(C)C`: 217 to 218 °C; `COc1nc(C)c(N2CCCn3c2nc2cccc(C(O)C(F)(F)F)c23)c(C)n1` (configuration not stated): 296 to 299 °C. Next, `CC(=O)NC(Cc1ccc([N+](=O)[O-])cc1)C(=O)O` (configuration not stated): 165 to 166 °C. Next, `CC(C)(C)NC(=O)[C@@H]1CCCN1C(=O)[C@@H](O)[C@H](Cc1ccccc1)NC(=O)[C@H](CC(N)=O)NC(=O)COc1cccc(N)c1`: 108 to 114 °C; `COc1ccc(-c2cc(=O)n(Cc3ccc(OC)c(F)c3)nc2-c2ccc(OC)cc2)cc1`: 166 to 168 °C; `COC(=O)C1=C(C)NC(C)=C(C(=O)OCOC(=O)C(C)C)C1c1cccc(Cl)c1Cl` (configuration not stated): 145 °C. Molecule `CC(C)CNC(=NC#N)Nc1cccnc1` displayed a melting point of 148 to 149 °C. Next, `CC1(C)OC(c2ccc(S(N)(=O)=O)c(F)c2)=C(c2cc(F)cc(F)c2)C1=S`: 153 to 154 °C; `C=C(C)COC1CC2C3CCC4=CC(=O)CCC4(C)C3(F)C(O)CC2(C)C1(O)C(=O)CO` (configuration not stated): 213 to 215 °C; `COC(=O)c1cc2c(S(=O)(=O)Cl)cc(Cl)c(Cl)c2o1`: 199 to 200 °C.

In turn, `O=[N+]([O-])c1ccc(Oc2ccc3c(c2)OCCC3Cl)cc1` (configuration not stated) displayed a melting point of 67 to 68 °C. In the case of `CC(=O)SCC(CC#N)C(=O)O` (configuration not stated), the melting point lay within 110 to 112 °C.

Molecule `CCSc1c(O[C@@H]2CCC[C@H](N)C2)ccc2[nH]ncc12` (relative stereo) returned a melting point of 110 °C. Consider `CCOC(=O)C(=CNc1cc([N+](=O)[O-])ccc1O)C(=O)c1cc(F)c(F)c(F)c1F`, for which the melting point worked out at 222 °C. The molecule `CCOC(=O)c1cnn2c1c(S)nc1c(C)nn(C)c12` showed a melting point of 189 to 191 °C. Next, `Cc1ccc(N2N=C3c4cc(C(=O)CCl)sc4CCC3CC2=O)cc1` (configuration not stated): 169 to 171 °C; `CCc1cc(CO)c(OC)nc1C`: 53 to 55 °C. On to `Cc1c(CC(C)(C)C(=O)O)n(Cc2ccc(Cl)cc2)c2ccc(OCc3ccc4ccc(Cl)cc4n3)cc12`, for which the melting point fell in the range of 105 to 107 °C.

`O=C(Cn1ccnc1)c1cccc2ccccc12`: the melting point was in the range of 114 to 117 °C. Next, `CC12CCc3ccccc3C1=NNC(=O)C2` (configuration not stated): 189 to 190 °C. Next, `COc1ccc(C2C(N=[N+]=[N-])C(=O)N2c2ccc(C(=O)O)cc2)cc1` (configuration not stated): 127 to 129 °C; `CC(C)(C)C(=O)OCc1cc2c(cc1C#Cc1ccccc1)NC(=O)CC(c1cccc(C#N)c1)=N2`: 218 °C. Next, `Cc1cc(Cn2nnn(-c3cc(C(F)(F)F)cc(C(F)(F)F)c3)c2=O)ccc1N`: 129 to 130 °C. Turning to `CCCN(c1c2c(nc3ccccc13)CCCC2)n1cc(C)c2ccccc21`, the melting point lay in the range of 142 to 144 °C.

With `C[C@H](c1ncnc(Sc2ccc(Cl)cc2)c1F)[C@@](O)(Cn1cncn1)c1ccc(F)cc1F`, the melting point was in the range of 158 to 160 °C. Next, `CC(=NOCCO)c1ccc(N(C)S(=O)(=O)c2ccccc2)cc1`: 76 to 77 °C. The molecule `CCC(C)(C)N=C(NC#N)Nc1cc(Br)cc(Br)c1` showed a melting point of 168 to 170 °C.

Molecule `CCc1cccc(C(C#N)c2nc(OC)cc(OC)n2)c1[N+](=O)[O-]` (configuration not stated) showed a melting point of 113 to 114 °C. `CCOCc1cc2cc(Br)ccc2oc1=Nc1ccc(C)cc1` returned a melting point of 116 to 117 °C. Next, `COC(=O)NC1=NCC(c2ccccc2)CN1C` (configuration not stated): 176 to 177 °C; `COc1c(N2CC(O)C2)c(F)cc2c(=O)c(C(=O)O)cn(C3CC3)c12`: 246 to 250 °C; `CCOC(=O)c1cc(=O)c2c(OCC(O)COc3cccc(O)c3C(C)=O)cccc2o1` (configuration not stated): 145 to 148 °C. Next, `O=C(Nc1ccccc1[N+](=O)[O-])C12CC3CC(CC(C3)C1)C2`: 111 to 114 °C; `Cc1cc(-n2ccnc2)cc2ccc(=O)[nH]c12`: 259 to 262 °C. Next, `COc1ncc(C(=O)O)cc1OC1CCCC1`: 191 to 192 °C; `CC1(C)CC(=O)C2C(=NC3=C(C(=O)CC(C)(C)C3)C2c2ccc(F)c(C#N)c2)C1` (configuration not stated): 274 to 275 °C. The molecule `Cn1nc(-c2cnc3[nH]cc(C(=O)NC4CCOCC4)c3n2)c2ccc(Cl)cc21` came in with a melting point of 355 to 358 °C. With `O=C(CCCc1ccccc1)N[C@H]1C[C@H](C(=O)O)Nc2cc(Cl)cc(Cl)c21` (relative stereo), the melting point was in the range of 189 to 191 °C. Next, `Cc1cc(-c2cccc([N+](=O)[O-])c2)c2ccccc2n1`: 157 °C; `CC1(Cn2nc(Cc3ccc(Cl)cc3)oc2=O)Cn2cc([N+](=O)[O-])nc2O1` (configuration not stated): 151 to 153 °C. On to `NC(=O)c1cn(C(CO)CCc2cccc3ccccc23)cn1` (configuration not stated), for which the melting point fell in the range of 138 to 140 °C. Next, `CN1CC(C(=O)c2nc(Cc3ccc(F)cc3)co2)=C(O)C1=O`: 209 to 210 °C; `CCOC(=O)c1cn(C)c2ccsc2c1=O`: 122 to 128 °C.

Consider `Cn1c(CC(=O)O)c(-c2ccccc2)c2cc(Cl)ccc21`, for which the melting point lay in the range of 141 to 142 °C. Next, `Cc1ccc(CC(N)=O)cn1`: 175 to 177 °C. Next, `CC(C)(C)C(=O)c1c[nH]c2ncc(-c3cccc(NS(=O)(=O)c4ccccc4)c3)nc12`: 217 to 219 °C. Next, `CC(C)(C)OC(=O)N1CCN(c2ccc(N)cc2)CC1`: 95 to 96 °C. With `CCC(C)(C)NC(=O)c1ccc(S(=O)(=O)Cl)c(OC)c1`, the melting point was found to be 104 °C. As for `CCNC(=O)Nc1ccc(-c2nc3n(Cc4c(F)cccc4F)cc(C(=O)OC(C)C)c(=O)n3c2CN(C)Cc2ccccc2)cc1`, the melting point is 198 to 200 °C.

On to `COc1cccc2oc(C(=O)C34CC5CC(CC(C5)C3)C4)cc12`, for which the melting point fell in the range of 96 to 98 °C. Turning to `Cc1ccc2c3c(ccc2n1)OC[C@H](CN1CCN(c2cccc(Cl)c2)CC1)O3`, the melting point lay within 110 to 112 °C. For the molecule `CCCCCCCCc1ccc(C(O)C(=O)c2ccccc2)cc1` (configuration not stated), the melting point was 85 to 89 °C. Next, `Cc1onc2c(=O)[nH]nc(-c3ccc(O)cc3)c12`: 268 to 276 °C; `C=C(C)c1ccc(O)cc1`: 167 to 168 °C.
